Results taken from patent publication US20220098237A1, “COMPOUND, SYNTHESIS INTERMEDIATE, USE, PHARMACEUTICAL COMPOSITION AND NEUROMODULATORY THERAPEUTIC METHOD” (Remer Consultores Assessoria Empresarial Ltda, priority 2017, published 2022).
Values joined by “and” are separate entries in the source; they are usually repeats but may differ in a detail not shown here. Equal values may be shown once. “Also recorded” adds a separate entry of the source. Ends that are not written are not given here.

Legend:
[1] = test system: CB1 receptor; test: Screening with anti-CB1 antibodies sensitive to activation/conformational changes, ELISA on Striatum membranes; format: binding; details: ligands 1 μM, Assay 1-5
Description: Antibodies sensitive to CB1 receptor activation were generated and characterized by their specificities. For screening compounds, Striatum membranes (5 μg per well) were plated on NUNC-Immuno 96-well plates (Nalge-Nunc) and dried at room temperature. Membranes were washed with PBS (phosphate buffered saline) and incubated with or without different ligands (1 μM) and the extent of receptor recognition by the antibodies was measured by ELISA. The results of the tests are shown in Table 5, which indicates the % binding to the CB1 receptor in relation to control: […]

[2] = Stability tests under extreme conditions (freezing 24 hours; heating at 100° C. for 10 minutes), HPLC; format: physicochemical
Excerpt: In the vertical axis the area of the HPLC peak is shown. […] Statistical significance data are also shown, the asterisks indicating: (*) P<0.05 vs Control (***) P<0.005 vs Control; (****) P<0.0001 vs Control.

[3] = test system: pilocarpine model; test: Pilocarpine model, oral pre-treatment (salivation, first signal, seizure, death/survival); format: in vivo, Mus musculus; set-up: time of occurrence of the first seizure: unit not given here; details: for time of occurrence of the first salivation: Table 1; for time of occurrence of the first salivation / time of occurrence of the first signal / time of occurrence of the first seizure / time of death occurrence: oral, 10 minutes prior to pilocarpine 320 mg/kg i.p., individual animals; for time of occurrence of the first signal: Table 2; for time of occurrence of the first seizure: Table 3; for time of death occurrence: Table 4; for neuroprotection, survival/death profile after 24 hours: FIG. 7, 600 μg/kg, n=5 per group, compared with SEQ ID No. 1
Description: In some examples, the neuromodulatory/neuroprotective/anticonvulsive effects of the composition of the invention have been evaluated in vivo by oral administration to animals. The pharmaceutical composition of the invention was administered to mammals (Mus musculus or mouse) with an oral dose of treatment with different embodiments of the compound of the invention, compared to other compounds or to saline control. In these experiments, the test compounds were administered orally 10 minutes prior to (intraperitoneal) administration of pilocarpine. Pilocarpine hydrochloride (320 mg/kg, Merck), dissolved in 0.9% sterile saline, was given intraperitoneally for induction of SE (status epileticus) (Turski et al., 1983). In the Turski model, the neurotoxic effects begin about 15-25 minutes after the injection of Pilo, with the occurrence of motor and limbic seizures, the animals evolving to a state of continuous (clonic) seizures that characterize SE Sanabria and Cavalheiro, 2000).
In this embodiment, the anticonvulsive effect of the composition of the invention prepared according to Example 2 was evaluated by prior administration of the inventive composition and subsequent administration of pilocarpine to animals. FIG. 4 presents the results of the pilocarpine model, indicating the time for the first salivation with the administration of control, cannabidiol (30 mg/kg), the compound of the invention R1-N-AA1-K-AA2-R2, in which embodiment is the tetrapeptide of SEQ ID No. 1 (500 μg/kg).
In this embodiment, the neuromodulatory effect of the composition of the invention prepared according to Example 2 was evaluated by prior administration of the inventive composition and subsequent administration of pilocarpine to animals. Other test compounds were also evaluated as described below. Administration of pilocarpine leads to severe brain injury, neurotoxicity and usually culminates in the death of the animals. This substance was used in the experiments described below but its harmful neuronal/encephalic effects were inhibited by the prior administration of the composition of the present invention: the vast majority of the animals subjected to these experiments had no symptoms related to brain lesions and survived without apparent damage, in contrast to groups of animals treated with other known substances.
The composition of the invention was prepared according to Example 2 with due concentration correction, for comparison of the effects of SEQ ID No. 1, SEQ ID No. 7 and NFK, such compounds having been previously administered to the animal groups.
In this embodiment, the anticonvulsant effect of different embodiments of the compound of the invention with the structure represented by SEQ ID No. 1, SEQ ID No. 7, NFK, FKF, FKL, as well as the NF, FK, KF and KL dipeptides were evaluated in the pilocarpine model.

[4] = test system: pain threshold; test: Pain threshold model, pressure apparatus on right paw; format: in vivo, rats; details: oral, 0.5 to 0.25 mg/kg, individual animals
Description: The compounds of the present invention have also been tested as analgesics or neuropathic pain modulators. To that end, the compounds PVNFKF, PVNFK, VNFKF, SEQ ID No. 1 were tested in the pain threshold model. The pain threshold was measured using a pressure apparatus (Ugo Basile, Italy), essentially as described (Randall and Selitto, 1957). Briefly, a force of increasing magnitude (16 g/s) was applied to the back of the right paw of rats. When animals react by kicking, the force in grams required to induce this response is the threshold of pain. Antinoniceptive activity was expressed as the increase in pain threshold compared to control animals.
The compounds of the invention were administered orally to the animals at doses of 0.5 to 0.25 mg/kg and saline was used as a control.

[5] = molecular target: CB1 receptor in Striatum membranes; test: ELISA on Striatum membranes: CB1 recognition by conformation-sensitive anti-CB1 antibody after incubation with 1 µM ligand; assay 1
Sequence of CB1 receptor in Striatum membranes (P21554 whole entry): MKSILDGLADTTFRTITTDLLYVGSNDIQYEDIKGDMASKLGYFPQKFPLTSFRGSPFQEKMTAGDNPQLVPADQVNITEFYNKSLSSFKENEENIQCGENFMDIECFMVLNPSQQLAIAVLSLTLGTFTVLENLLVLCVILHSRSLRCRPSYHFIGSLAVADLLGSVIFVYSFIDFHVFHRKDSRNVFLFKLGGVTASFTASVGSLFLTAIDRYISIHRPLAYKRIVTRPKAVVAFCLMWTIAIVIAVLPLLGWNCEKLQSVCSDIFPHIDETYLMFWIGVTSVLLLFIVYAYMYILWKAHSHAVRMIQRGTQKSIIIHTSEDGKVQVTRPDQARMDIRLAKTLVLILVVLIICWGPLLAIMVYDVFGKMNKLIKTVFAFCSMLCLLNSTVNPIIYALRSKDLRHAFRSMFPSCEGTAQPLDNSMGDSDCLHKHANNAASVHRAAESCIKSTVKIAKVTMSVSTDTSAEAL

[6] = molecular target: CB1 receptor in Striatum membranes; test: ELISA on Striatum membranes: CB1 recognition by conformation-sensitive anti-CB1 antibody after incubation with 1 µM ligand; assay 4
[7] = molecular target: CB1 receptor in Striatum membranes; test: ELISA on Striatum membranes: CB1 recognition by conformation-sensitive anti-CB1 antibody after incubation with 1 µM ligand; assay 2
[8] = molecular target: CB1 receptor in Striatum membranes; test: ELISA on Striatum membranes: CB1 recognition by conformation-sensitive anti-CB1 antibody after incubation with 1 µM ligand; assay 3
[9] = molecular target: CB1 receptor in Striatum membranes; test: ELISA on Striatum membranes: CB1 recognition by conformation-sensitive anti-CB1 antibody after incubation with 1 µM ligand; assay 5
[10] = heating at 100° C. for 10 minutes

Molecule: CC(C)C[C@H](NC(=O)[C@H](Cc1ccccc1)NC(=O)[C@H](CCCCN)NC(=O)[C@H](Cc1ccccc1)NC(=O)[C@H](CC(N)=O)NC(=O)[C@@H](NC(=O)[C@@H]1CCCN1)C(C)C)C(=O)N[C@@H](CO)C(=O)N[C@@H](Cc1cnc[nH]1)C(=O)O [Hp, hemopressin]
- % binding to the CB1 receptor in relation to control [1]: 91.33% and 92.74% and 97.05% and 90.23% and 73.49%
- area of the HPLC peak, control ([2]; control sample, n=2): 140
- area of the HPLC peak after freezing ([2]; freezing for 24 h): 97
- part lost or degraded by freezing ([2]; freezing for 24 h): approximately 31%
- area of the HPLC peak after heating [2, 10]: 50
- part lost or degraded upon heating [2, 10]: approximately 64.3%

Molecule: Cc1c(C(=O)c2cccc3ccccc23)c2cccc3c2n1[C@H](CN1CCOCC1)CO3 [WIN 55212-2]
- % binding to the CB1 receptor in relation to control ([1]; listed as Win): 111.483% and 117.95% and 125.56% and 127.52% and 122.49%

Molecule: C=C(C)[C@@H]1CCC(C)=C[C@H]1c1c(O)cc(CCCCC)cc1O [cannabidiol, reference compound]
- time for first salivation vs control (significance) ([3]; FIG. 4, cannabidiol 30 mg/kg, SEQ ID No. 1 500 μg/kg): does not present statistical significance
- prostration and nasal bleeding ([3]; SEQ ID No. 1 500 μg/kg, cannabidiol 30 mg/kg): both prostration and the nasal bleeding was observed; also recorded: both prostration and bleeding were observed

Molecule: FKF
- time of occurrence of the first salivation [3]: 0.38 min and 0.95 min and 0.50 min and 1.50 min
- time of occurrence of the first signal [3]: 5.3 min and 6.35 min and 8.33 min and 8.82 min
- time of occurrence of the first seizure [3]: 10.25 and 6.28 and 8.92 and 3.83 and 7.82
- time of death occurrence [3]: 12.9 min and 13.17 min and 20.67 min and 16.67 min and 13.5 min

Molecule: FKL
- time of occurrence of the first salivation [3]: 0.333 min and 1.6 min and 0.2 min and 0.633 min and 1.5 min
- time of occurrence of the first signal [3]: 9.17 min and 5.67 min and 9.5 min and 8.5 min and 4.5 min
- time of occurrence of the first seizure [3]: 5.3 and 6.35 and 4.83 and 8.82
- time of death occurrence [3]: 14.53 min and 11.7 min and 10.92 min

Molecule: NFK
- neuroprotection, survival/death profile after 24 hours [3]: equivalent to those obtained with SEQ ID No. 1
- occurrence of first salivation (in words) ([3]; FIG. 8): inhibited or delayed the occurrence of first salivation
- time of occurrence of the first salivation [3]: 1.38 min and 0.75 min and 0.42 min and 0.98 min
- time of occurrence of the first signal [3]: 6.28 min and 8.92 min and 4.83 min and 7.82 min
- time of occurrence of the first seizure [3]: 13.38 and 11.33 and 9.67 and 8 and 9.93
- time of death occurrence [3]: 16.83 min and 13.53 min and 11.7 min and 10.92 min and 10.87 min

Molecule: PVNFK [reference compound]
- pain threshold, force ([4]; After 3 h): 55 grams (2×) and 45 grams and 40 grams (2×) and 60 grams
- pain threshold, force ([4]; Immediate): 70 grams and 75 grams (3×) and 65 grams and 60 grams

Molecule: PVNFKF [reference compound]
- pain threshold, force ([4]; After 3 h): 45 grams (2×) and 30 grams and 55 grams (2×) and 65 grams
- pain threshold, force ([4]; Immediate): 75 grams (2×) and 65 grams and 60 grams and 70 grams and 80 grams

Molecule: RVDHp (peptide)
- % binding to the CB1 receptor in relation to control [5]: 103 % of control
- % binding to the CB1 receptor in relation to control [6]: 115 % of control
- % binding to the CB1 receptor in relation to control [7]: 112 % of control
- % binding to the CB1 receptor in relation to control [8]: 111 % of control
- % binding to the CB1 receptor in relation to control [9]: 105 % of control

Molecule: RVDHp: N-extended version of hemopressin, RVD-Hp (pepcan 12) (RVDPVNFKLLSH; Hemoglobin subunit alpha; UniProt P69905 93-104, looked up, fragment)
- % binding to the CB1 receptor in relation to control [1]: 103.39% and 111.53% and 110.87% and 114.76% and 105.22%

Molecule: SEQ ID No. 7: tetrapeptide of SEQ ID No. 7, embodiment of R1-N-AA1-K-AA2-R2; sequence not printed in the text (NFKL; Synthesized in laboratory)
- neuroprotection, survival/death profile after 24 hours [3]: even better than those obtained with SEQ ID No. 1
- time of occurrence of the first salivation [3]: 1.25 min (2×) and 1.183 min and 1.067 min and 2.45 min
- time of occurrence of the first signal [3]: 10.25 min and 9.317 min and 10.17 min (2×) and 3.83 min
- time of occurrence of the first seizure [3]: 15.33 (2×) and 18.4 and 30 and 27.3
- time of death occurrence [3]: 26.63 min and 25.13 min and 13.5 min

Molecule: VDHp (peptide)
- % binding to the CB1 receptor in relation to control [5]: 116 % of control
- % binding to the CB1 receptor in relation to control [6]: 129 % of control
- % binding to the CB1 receptor in relation to control [7]: 114 % of control
- % binding to the CB1 receptor in relation to control [8]: 131 % of control
- % binding to the CB1 receptor in relation to control [9]: 113 % of control

Molecule: VNFKF
- pain threshold, force ([4]; After 3 h): 85 grams and 40 grams and 35 grams and 50 grams (3×)
- pain threshold, force ([4]; Immediate): 70 grams (2×) and 65 grams (2×) and 75 grams (2×)

B1: hemopressin (peptide)
peptide: PVNFKFLSH
- % binding to the CB1 receptor in relation to control [5]: 91.3 % of control
- % binding to the CB1 receptor in relation to control [6]: 90.2 % of control
- % binding to the CB1 receptor in relation to control [7]: 92.7 % of control
- % binding to the CB1 receptor in relation to control [8]: 97 % of control
- % binding to the CB1 receptor in relation to control [9]: 73.5 % of control

B2: SEQ ID No. 1-Biotin (peptide)
peptide: NFKF
modifications: also: biotin, position not given here
- % binding to the CB1 receptor in relation to control [5]: 89.2 % of control
- % binding to the CB1 receptor in relation to control [6]: 84.8 % of control
- % binding to the CB1 receptor in relation to control [7]: 85.5 % of control
- % binding to the CB1 receptor in relation to control [8]: 83.3 % of control
- % binding to the CB1 receptor in relation to control [9]: 97.5 % of control
